Measured values: patent US20140010939A1, “Sweetness Enhancers, Sweetener Compositions, Methods of Making the Same and Consumables Containing the Same” (Nutrinova Nutrition Specialties & Food Ingredients GmbH, priority 2011, published 2014)

Columns and labels:
[1] = Taste and spit assay phase I - qualitative assessment; type: in vivo; conditions: 20 μM in 0.5% ethanol, 10 ml samples, 5 individuals, ambient temperature
Description: The taste of a sample of compound of formula (Ia) with regard to sweetness and fructose enhancing features was assessed by using a panel of trained sensory evaluators experienced in the sweet taste estimation procedure. 5 individuals were asked to taste the quality of single samples of 10 ml volume. Panelists were asked to take a sample of the liquid to be assessed (20 μM test substance compound of formula (Ia) in 0.5% ethanol) into the mouth and after some time allowed for taste perception to spit the sample out completely. Subsequently, the panelists were asked to rinse their mouth well with water or black tea to reduce any potential carry over effects. The tasting of a sample could be repeated if required. In a first descriptive test 5 individuals were asked to taste the quality of single samples of 10 ml volume (maximum 3 subsequent samples). The samples were served at ambient temperature. The individuals of the taste panel were asked to answer the following questions with regard to the quality of taste: 1) does the sample taste sweet?, 2) is there another taste detectable (bitter, sour, salty, umami)?, 3) is there an off- or aftertaste?, 4) is there anything else remarkable about the perception of the sample?

[2] = tested on: control cell line without sweet receptor (HEKα15#17); test: Control cell line without sweet receptor in the same calcium cell based assay
Description: For measurement of human T1R2/T1R3 taste receptor dependent activity a control cell line without sweet receptor based on HEK 293 and a cell line expressing the sweet receptor hT1R2/hT1R3 based on HEK 293, respectively, are seeded into assay plates and labelled with the calcium sensitive fluorescence dye Fluo4-AM in a culture medium. The potential modulators, e.g. the test compound, are added to the control cell line and to the cell line expressing the sweet receptor hT1R2/hT1R3, respectively.
A stable cell line based on HEK293 was termed HEKα15#17 served as control for functional Ga-protein and a stable cell line HEKGα15#17R2R3b#8 C6 served as cell line expressing the sweet receptor hT1R2/hT1R3 based on HEKGα15#17.
The cells were cultured in DMEM/HG and 10% FCS Gold, 4 mM L-Glutamin, 1,3 mg/ml Geneticin (HEKGα15#17) or the same medium additionally containing 6 μg/ml Blasticidin (HEKGα15#17R2R3b#8 C6). The medium for the assay was DMEM/HG (high glucose, 4.5 g/l glucose, Life Technologies) and 10% FCS Gold, 4 mM L-Glutamin (HEKGα15#17) or DMEM/LG (low glucose, 1 g/l glucose; Life Technologies) and 10% FCS Gold (HEKGα15#17R2R3b#8C6), respectively.
In order to evaluate the sweet receptor modulating activity of the compound of formula (Ia), compound of formula (Ia) was added to the cultures in a concentration of 25 μM in a volume of 50 μl. Controls were KH-buffer (Krebs HEPES-buffer: 118 mM NaCl, 4.7 mM KCl, 1.2 mM MgSO4, 1.2 mM KH2PO4, 4.2 mM NaHCO3, 1.3 mM CaCl2, 10 mM Hepes, pH 7.4) either without or with sweetness enhancer.
Further controls for function of G-protein and receptor were isoproterenol (1 μM, Sigma Aldrich), ionomycin (1 μM, Calbiochem) and ATP (1 μM, Applichem).
For measurement of human T1R2/T1R3 taste receptor dependent activity, on day 1 of the test procedure the HEKα15#17 cells (control cell line without sweet receptor) and the HEKGα15#17R2R3b#8 C6 cells (cell line expressing the sweet receptor hT1R2/hT1R3), respectively, were transferred to low-glucose medium.
On day 2 the cells were seeded into assay plates at a density of 25,000 cells/well. Assay plates for fluorescence measurement (black clear bottom 96-cavity plates, Greiner Bio-One) were coated with poly-D-lysine. For direct comparison both cell lines (control cell line without sweet receptor and cell line expressing the sweet receptor hT1R2/hT1R3) were seeded into different cavities of the same assay plate. The plate was placed into the incubator for 48 hours at 37° C., 5% CO2, 100% relative humidity.
On day 4 the calcium assay was performed. For this assay, the cells were marked with Fluo4-AM in medium and KH-buffer. To each cavity 100 μl KH-buffer/250 μM sulfinpyrazone/4 μM Fluo4-AM were added gently to 100 μl medium (final concentration of Fluo4-AM=2 μM, stock solution of Fluo4-AM 1 mM in DMSO, excitation at 485 nm, emission at 520 nm, Fisher Scientific, 58239 Schwerte, Germany).
The plate was placed into the incubator for 1 hour. In the mean time the test substances (“ligands”) were prepared in a separate plate (5 times concentrated, 150 μl/cavity, and then automatically 50 μl/cavity were transferred into the screening cell plate by pipetting robot (FLEX-station, Molecular Devices, Sunnyvale, Calif.).
The culture medium was carefully removed and 200 μl KH-buffer/250 μM sulfinpyrazone per cavity was added slowly. Cells were left in the FLEX-station for 20 minutes for adaptation, followed by measurement at 37° C.

[3] = Stability test at 30° C. at three pH-values (HPLC); type: physicochemical; conditions: for Stability: 30° C., 8 weeks, 0.2 mM, HPLC
Description: The stability of the compound of formula (Ia) was tested at 30° C. at three different pH-values.
The test ran over 8 weeks with the compound of formula (Ia) placed in temperature controlled ovens. Samples were taken according to the following scheme: Days 0, 3, 6, 10, 14, 21, and 28 followed by weeks 6 and 8. All samples were analyzed by HPLC. Reference samples for days 3, 6, 10, 14, 21, and 28 plus weeks 6 and 8 were kept at −20° C. and analyzed together with the samples at 30° C.
Each individual sample of the compound of formula (Ia) contained 18 μg in 200 μl buffer (0.2 mM). All samples were prepared in 1.5 ml HPLC vials at the same day. Samples for day 0 were immediately analyzed and all other samples placed in ovens. Reference samples were immediately frozen at −20° C.
One reference sample per pH-value was used. Samples from the oven were taken and reference samples were added after thawing. The set of samples at 30° with reference sample was grouped into the HPLC autosampler to minimize the time gap between HPLC-analysis within each set of samples. All samples were analyzed by double injections.
Samples were analyzed by the method shown below. The target peak was manually integrated and mean values of double injections were used to prepare graphs for assessment of the stability (see FIGS. 4 to 6).

CC(=O)N(O)CCCCCNC(=O)C(O)(CC(=O)O)CC(=O)NCCCN(O)C(C)=O (stereo not drawn) [compound of formula (Ia)]
Characteristic taste of the sample (sweet, bitter, sour, salty, umami) [1]: No characteristic taste was identified
Off- or aftertaste [1]: no off-taste was detected
Fluo4-AM fluorescence increase (activation of control cell line) ([2]; 25 μM, in the presence of fructose (20 mM), FIG. 1 ninth bar): does not activate the control cell line
Fluo4-AM fluorescence increase (activation of control cell line) ([2]; 25 μM, without fructose, FIG. 1 eighth bar): does neither activate the control cell line
Fluo4-AM fluorescence increase (activation of control cell line) ([2]; secondary screening, in the presence of fructose, FIG. 1 seventh bar): does not activate the control cell line
Stability ([3]; pH=3.0 Na-Citrate buffer, FIG. 4): stable during 8 weeks at 30 °C at pH=3.0
Stability ([3]; pH=4.5 Na-Citrate buffer, FIG. 5): stable during 8 weeks at 30 °C at pH=4.5
Stability ([3]; pH=6.5 phosphate buffer, FIG. 6): stable during 8 weeks at 30 °C at pH=6.5
Temperature and pH stability (overall) ([3]; summary of the test at 30° C., pH 3.0, 4.5, 6.5): excellent temperature and pH stability
